Laboratory results taken from PubChem BioAssay (NCI).
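Five compound concentrations were applied to cells in 96-well plates for 48 hours; endpoints were derived by simple linear interpolation of the resulting dose-response curve. GI50: concentration for 50% inhibition of growth. TGI: total growth inhibition.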

What was measured:
Assay in all cases: NCI tumour cell line growth inhibition, 48 h
786-0 renal = system: 786-0 renal
A498 renal = system: A498 renal
A549 NSCLC = system: A549 NSCLC
ACHN renal = system: ACHN renal
BT-549 breast = system: BT-549 breast
CCRF-CEM leukemia = system: CCRF-CEM leukemia
COLO 205 colon = system: COLO 205 colon
DU-145 prostate = system: DU-145 prostate
EKVX NSCLC = system: EKVX NSCLC
HCC-2998 colon = system: HCC-2998 colon
HCT-116 colon = system: HCT-116 colon
HCT-15 colon = system: HCT-15 colon
HL-60(TB) leukemia = system: HL-60(TB) leukemia
HOP-62 NSCLC = system: HOP-62 NSCLC
HOP-92 NSCLC = system: HOP-92 NSCLC
HS 578T breast = system: HS 578T breast
HT29 colon = system: HT29 colon
IGROV1 ovarian = system: IGROV1 ovarian
K-562 leukemia = system: K-562 leukemia
KM12 colon = system: KM12 colon
LOX IMVI melanoma = system: LOX IMVI melanoma
M14 melanoma = system: M14 melanoma
MCF7 breast = system: MCF7 breast
MDA-MB-231 breast = system: MDA-MB-231 breast
MDA-MB-435 = system: MDA-MB-435
MOLT-4 leukemia = system: MOLT-4 leukemia
NCI-H226 lung = system: NCI-H226 lung
NCI-H23 lung = system: NCI-H23 lung
NCI-H460 lung = system: NCI-H460 lung
NCI-H522 lung = system: NCI-H522 lung
NCI/ADR-RES ovarian = system: NCI/ADR-RES ovarian
OVCAR-3 ovarian = system: OVCAR-3 ovarian
OVCAR-4 ovarian = system: OVCAR-4 ovarian
OVCAR-5 ovarian = system: OVCAR-5 ovarian
OVCAR-8 ovarian = system: OVCAR-8 ovarian
PC-3 prostate = system: PC-3 prostate
RPMI-8226 leukemia = system: RPMI-8226 leukemia
RXF 393 renal = system: RXF 393 renal
SF-268 CNS = system: SF-268 CNS
SF-295 CNS = system: SF-295 CNS
SF-539 CNS = system: SF-539 CNS
SK-MEL-2 melanoma = system: SK-MEL-2 melanoma
SK-MEL-28 melanoma = system: SK-MEL-28 melanoma
SK-MEL-5 melanoma = system: SK-MEL-5 melanoma
SK-OV-3 ovarian = system: SK-OV-3 ovarian
SN12C renal = system: SN12C renal
SNB-19 CNS = system: SNB-19 CNS
SNB-75 CNS = system: SNB-75 CNS
SR leukemia = system: SR leukemia
SW-620 colon = system: SW-620 colon
TK-10 renal = system: TK-10 renal
U251 CNS = system: U251 CNS
UACC-257 melanoma = system: UACC-257 melanoma
UACC-62 melanoma = system: UACC-62 melanoma
UO-31 renal = system: UO-31 renal
CAKI-1 renal = system: CAKI-1 renal
MALME-3M melanoma = system: MALME-3M melanoma

Compound: COc1cc2cc(c1Cl)N(C)C(=O)C[C@H](OC(=O)[C@H](C)N(C)C(=O)CCS)C[C@]1(C)O[C@H]1[C@H](C)[C@@H]1C[C@@](O)(NC(=O)O1)[C@H](OC)/C=C/C=C(\C)C2
- GI50 (786-0 renal): 0.00906 µM
- TGI (786-0 renal): > 24.7 µM
- GI50 (A498 renal): < 0.005 µM
- TGI (A498 renal): 0.496 µM
- GI50 (A549 NSCLC): 0.00752 µM
- TGI (A549 NSCLC): > 50 µM
- GI50 (ACHN renal): < 0.005 µM
- TGI (ACHN renal): > 50 µM
- GI50 (BT-549 breast): < 0.005 µM
- TGI (BT-549 breast): 0.134 µM
- GI50 (CCRF-CEM leukemia): < 0.005 µM
- TGI (CCRF-CEM leukemia): > 50 µM
- GI50 (COLO 205 colon): < 0.005 µM
- TGI (COLO 205 colon): 0.0257 µM
- GI50 (DU-145 prostate): < 0.005 µM
- TGI (DU-145 prostate): > 50 µM
- GI50 (EKVX NSCLC): 0.00951 µM
- TGI (EKVX NSCLC): > 50 µM
- GI50 (HCC-2998 colon): 0.00609 µM
- TGI (HCC-2998 colon): > 50 µM
- GI50 (HCT-116 colon): < 0.005 µM
- TGI (HCT-116 colon): 5.78 µM
- GI50 (HCT-15 colon): 0.00624 µM
- TGI (HCT-15 colon): > 50 µM
- GI50 (HL-60(TB) leukemia): < 0.005 µM
- TGI (HL-60(TB) leukemia): < 0.005 µM
- GI50 (HOP-62 NSCLC): < 0.005 µM
- TGI (HOP-62 NSCLC): > 50 µM
- GI50 (HOP-92 NSCLC): < 0.005 µM
- TGI (HOP-92 NSCLC): 49.6 µM
- GI50 (HS 578T breast): 0.0164 µM
- TGI (HS 578T breast): > 32 µM
- GI50 (HT29 colon): < 0.005 µM
- TGI (HT29 colon): > 50 µM
- GI50 (IGROV1 ovarian): 0.00762 µM
- TGI (IGROV1 ovarian): > 50 µM
- GI50 (K-562 leukemia): < 0.005 µM
- TGI (K-562 leukemia): > 50 µM
- GI50 (KM12 colon): < 0.005 µM
- TGI (KM12 colon): > 50 µM
- GI50 (LOX IMVI melanoma): < 0.005 µM
- TGI (LOX IMVI melanoma): > 22.9 µM
- GI50 (M14 melanoma): < 0.005 µM
- TGI (M14 melanoma): < 0.005 µM
- GI50 (MCF7 breast): < 0.005 µM
- TGI (MCF7 breast): > 50 µM
- GI50 (MDA-MB-231 breast): 0.00681 µM
- TGI (MDA-MB-231 breast): 1.61 µM
- GI50 (MDA-MB-435): < 0.005 µM
- TGI (MDA-MB-435): < 0.005 µM
- GI50 (MOLT-4 leukemia): < 0.005 µM
- TGI (MOLT-4 leukemia): > 50 µM
- GI50 (NCI-H226 lung): 0.038 µM
- TGI (NCI-H226 lung): > 50 µM
- GI50 (NCI-H23 lung): 0.00804 µM
- TGI (NCI-H23 lung): > 50 µM
- GI50 (NCI-H460 lung): < 0.005 µM
- TGI (NCI-H460 lung): > 30.8 µM
- GI50 (NCI-H522 lung): < 0.005 µM
- TGI (NCI-H522 lung): 0.0426 µM
- GI50 (NCI/ADR-RES ovarian): 0.0244 µM
- TGI (NCI/ADR-RES ovarian): 34.8 µM
- GI50 (OVCAR-3 ovarian): < 0.005 µM
- TGI (OVCAR-3 ovarian): > 50 µM
- GI50 (OVCAR-4 ovarian): 0.0218 µM
- TGI (OVCAR-4 ovarian): > 50 µM
- GI50 (OVCAR-5 ovarian): 0.00994 µM
- TGI (OVCAR-5 ovarian): > 50 µM
- GI50 (OVCAR-8 ovarian): 0.0083 µM
- TGI (OVCAR-8 ovarian): > 50 µM
- GI50 (PC-3 prostate): < 0.005 µM
- TGI (PC-3 prostate): > 50 µM
- GI50 (RPMI-8226 leukemia): < 0.005 µM
- TGI (RPMI-8226 leukemia): 21.6 µM
- GI50 (RXF 393 renal): 0.00644 µM
- TGI (RXF 393 renal): > 50 µM
- GI50 (SF-268 CNS): 0.00954 µM
- TGI (SF-268 CNS): > 50 µM
- GI50 (SF-295 CNS): < 0.005 µM
- GI50 (SF-539 CNS): < 0.005 µM
- TGI (SF-539 CNS): 0.0674 µM
- GI50 (SK-MEL-2 melanoma): < 0.005 µM
- TGI (SK-MEL-2 melanoma): > 50 µM
- GI50 (SK-MEL-28 melanoma): 3.47 µM
- TGI (SK-MEL-28 melanoma): > 50 µM
- GI50 (SK-MEL-5 melanoma): < 0.005 µM
- TGI (SK-MEL-5 melanoma): 0.0628 µM
- GI50 (SK-OV-3 ovarian): < 0.005 µM
- TGI (SK-OV-3 ovarian): > 50 µM
- GI50 (SN12C renal): < 0.005 µM
- TGI (SN12C renal): > 50 µM
- GI50 (SNB-19 CNS): < 0.005 µM
- TGI (SNB-19 CNS): > 50 µM
- GI50 (SNB-75 CNS): < 0.005 µM
- TGI (SNB-75 CNS): > 50 µM
- GI50 (SR leukemia): < 0.005 µM
- TGI (SR leukemia): > 50 µM
- GI50 (SW-620 colon): < 0.005 µM
- TGI (SW-620 colon): > 50 µM
- GI50 (TK-10 renal): > 17.1 µM
- TGI (TK-10 renal): > 50 µM
- GI50 (U251 CNS): < 0.005 µM
- TGI (U251 CNS): > 32.9 µM
- GI50 (UACC-257 melanoma): > 50 µM
- TGI (UACC-257 melanoma): > 50 µM
- GI50 (UACC-62 melanoma): < 0.005 µM
- TGI (UACC-62 melanoma): > 50 µM
- GI50 (UO-31 renal): 0.0282 µM
- TGI (UO-31 renal): > 50 µM

Compound: S=c1ncc2n[nH]nc2[nH]1
- TGI (786-0 renal): > 100 µM
- TGI (A498 renal): > 100 µM
- TGI (A549 NSCLC): > 100 µM
- TGI (ACHN renal): > 100 µM
- TGI (BT-549 breast): > 100 µM
- TGI (CAKI-1 renal): > 100 µM
- TGI (CCRF-CEM leukemia): > 100 µM
- TGI (COLO 205 colon): > 100 µM
- TGI (DU-145 prostate): > 100 µM
- TGI (EKVX NSCLC): > 100 µM
- TGI (HCC-2998 colon): > 100 µM
- TGI (HCT-116 colon): > 100 µM
- TGI (HCT-15 colon): > 100 µM
- TGI (HL-60(TB) leukemia): > 100 µM
- TGI (HOP-62 NSCLC): > 100 µM
- TGI (HOP-92 NSCLC): > 100 µM
- TGI (HS 578T breast): > 100 µM
- TGI (HT29 colon): > 100 µM
- TGI (IGROV1 ovarian): > 100 µM
- TGI (K-562 leukemia): > 100 µM
- TGI (KM12 colon): > 100 µM
- TGI (LOX IMVI melanoma): > 100 µM
- TGI (MALME-3M melanoma): > 100 µM
- TGI (MCF7 breast): > 100 µM
- TGI (MDA-MB-231 breast): > 100 µM
- TGI (MDA-MB-435): > 100 µM
- TGI (MOLT-4 leukemia): > 100 µM
- TGI (NCI-H226 lung): > 100 µM
- TGI (NCI-H23 lung): > 100 µM
- TGI (NCI-H460 lung): > 100 µM
- TGI (NCI-H522 lung): > 100 µM
- TGI (NCI/ADR-RES ovarian): > 100 µM
- TGI (OVCAR-3 ovarian): > 100 µM
- TGI (OVCAR-4 ovarian): > 100 µM
- TGI (OVCAR-5 ovarian): > 100 µM
- TGI (OVCAR-8 ovarian): > 100 µM
- TGI (PC-3 prostate): > 100 µM
- TGI (RPMI-8226 leukemia): > 100 µM
- TGI (RXF 393 renal): > 100 µM
- TGI (SF-268 CNS): > 100 µM
- TGI (SF-295 CNS): > 100 µM
- TGI (SF-539 CNS): > 100 µM
- TGI (SK-MEL-28 melanoma): > 100 µM
- TGI (SK-MEL-5 melanoma): > 100 µM
- TGI (SN12C renal): > 100 µM
- TGI (SNB-19 CNS): > 100 µM
- TGI (SNB-75 CNS): > 100 µM
- TGI (SR leukemia): > 100 µM
- TGI (SW-620 colon): > 100 µM
- TGI (TK-10 renal): > 100 µM
- TGI (U251 CNS): > 100 µM
- TGI (UACC-257 melanoma): > 100 µM
- TGI (UO-31 renal): > 100 µM
